Assay results taken from patent US20110288106A1, “ADENINE RECEPTOR LIGANDS” (Rheinische Friedrich-Wilhelms-Universitaet Bonn …, priority 2008, published 2011).
Structures can show the parent of a compound that is named as a salt.

Assays:
rAde1R [1] = molecular target: T1, rAde1R (Rattus norvegicus, UniProt Q7TN49); conditions: literature, Gorzalka et al. 2005; cited from earlier work
T1 construct: expressed in transfected cells; host or cells: 1321N1 human astrocytoma cells
T1 sequence (Q7TN49 1-304): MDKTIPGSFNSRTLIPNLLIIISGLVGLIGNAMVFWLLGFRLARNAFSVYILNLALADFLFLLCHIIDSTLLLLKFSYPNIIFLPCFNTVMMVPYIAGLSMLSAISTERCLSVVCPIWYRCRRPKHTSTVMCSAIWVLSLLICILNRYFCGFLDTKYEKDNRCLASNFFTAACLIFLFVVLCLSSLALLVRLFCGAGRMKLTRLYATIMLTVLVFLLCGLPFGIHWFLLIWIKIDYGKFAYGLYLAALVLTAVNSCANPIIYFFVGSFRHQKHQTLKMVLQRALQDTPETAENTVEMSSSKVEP

Human adenine receptor = assay: Radioligand binding assay, [3H]adenine competition, HEK293 cell membrane preparations; conditions: HEK293 cell membranes, vs. 10 nM [3H]adenine, mean ± SEM
Method: (§1) Competition assays with [8-^3H]adenine (27 Ci/mmol; GE Healthcare) were carried out as described previously (Gorzalka et al., Mol. Pharmacol. 2005, 67, 955-964). In brief, 50 μg of rat cortical membrane preparations or 100 μg of protein (HEK293 (human embryonic kidney) cell membrane preparations) was incubated with 10 nM [8^3H]adenine in 50 mM Tris-HCl buffer, pH 7.4, in a total volume of 200 μl. Inhibition curves were determined using 6 to 9 different concentrations of selected adenine derivative. Three separate experiments were performed each in triplicate. Nonspecific binding was determined by using 100 μM adenine. Incubations were carried out for 1 h at room temperature and terminated by rapid filtration through GF/B glass fiber filters (Whatman, Dassel, Germany). Filters were washed three times with ice-cold 50 mM Tris-HCl buffer, pH 7.4, 3 ml each. Filter-bound radioactivity was measured by liquid scintillation counting.
(§2) Data points represent means±SEM of three separate experiments each performed in triplicate.

rAde1R [2] = molecular target: T1, rAde1R; assay: cAMP-dependent luciferase assay, inhibition of isoproterenol-stimulated cAMP accumulation; format: cell-based; conditions: for effect on isoproterenol-induced cAMP accumulation: 3 nM isoproterenol, n=3
Method: (§3) 1321N1 cells stably expressing the rAde1R were cultured in DMEM supplemented with 10% (v/v) FCS, L-glutamine (2 mM), penicillin (100 U/ml), streptomycin (100 U/ml) and 400 μg/ml G 418 at 37° C. under a humidified atmosphere containing 5% CO2. Cells were cultured in 75 cm^2 flasks (3.2×10^5) for 24 h without antibiotics so that they were 90-95% confluent before transfection. The cAMP responsive reporter plasmid (pCER-luc) or serum response element (pSRE-luc) was transfected into 1321N1 cells expressing rat adenine receptors using Lipofectamine 2000 as a transfection reagent.
Reporter cells were seeded at a density of […] cells/well in a 24-well plate 18-20 hr prior to assay. After removal of culture medium, cells were washed twice with Hanks' balanced salt solution (containing 20 mM HEPES, pH 7.3). Adenine and selected adenine derivatives were diluted in Hanks' balanced salt solution containing 3 nM isoproterenol and then incubated with reporter cells in the same buffer for 3 h at 37° C. The reaction was stopped by removal of the reaction buffer and the luciferase expression was determined using Bright-Glo™ Luciferase assay system (Promega) as described in the kit protocol. Plates were shaken for 2 min to ensure complete lysis of cells. Then the total volume from each well was transferred to a white 96-well plate (Greiner bio-one). Luminescence was determined using a NOVOstar microplate reader (BMG labtech); each well was counted for 2 s at 20° C.

Rat adenine receptor = molecular target: T2, Rat adenine receptor (Rattus norvegicus, UniProt Q7TN49); assay: Radioligand binding assay, [3H]adenine competition, rat cortical membrane preparations; conditions: rat cortex membranes, vs. 10 nM [3H]adenine, mean ± SEM
T2 construct: 50 μg of rat cortical membrane preparations; from tissue; host or cells: rat brain cortex membranes
T2 sequence (Q7TN49 1-304): T1 sequence (Q7TN49 1-304)
Method: as §1, §2

rAde1R [3] = molecular target: T1, rAde1R; assay: Erk phosphorylation assay (SRE-dependent luciferase), 1321N1 cells expressing rAde1R; format: cell-based; conditions: 1321N1 astrocytoma cells stably expressing rAde1R, 6 h
Method: as §3
Erk phosphorylation was investigated by a gene reporter assay measuring SRE-dependent luciferase activity in astrocytoma cells stably transfected with the rat adenine receptor. The cells were seeded in a 24-well plate prior to the assay. The culture medium was removed and cells were washed twice with Hanks' balanced salt solution without HEPES, pH 7.3. Adenine was diluted in the same buffer and then added to the cells, which were incubated for 6 h at 37° C. The reaction was stopped by removal of the reaction buffer and the luciferase expression was determined as described before.

[4] = test system: non-transfected 1321N1 astrocytoma cells; assay: Erk phosphorylation assay (SRE-dependent luciferase), non-transfected cells; format: cell-based, human; conditions: 6 h
[5] = 10 μM compound, 1321N1 cells expressing rAde1R

In the case of `CNCCC(=O)Nc1ncnc2[nH]cnc12` (as salt: hydrochloride) [Example 9, 3-Methyl-amino-N(9H-purin-6-yl)propionamide dihydrochloride], the melting point is reported as 213 °C.
`CCNCCC(=O)Nc1ncnc2[nH]cnc12` (as salt: hydrochloride) [Example 10, 3-Ethyl-amino-N(9H-purin-6-yl)propionamide dihydrochloride] showed a melting point of 216 °C.
Compound `CCCNCCC(=O)Nc1ncnc2[nH]cnc12` (as salt: hydrochloride) [Example 11, 3-Propyl-amino-N(9H-purin-6-yl)propionamide dihydrochloride] has a melting point of 171 °C.
`O=C(CCNCc1ccccc1)Nc1ncnc2[nH]cnc12` (as salt: hydrochloride) [Example 12, 3-Benzyl-amino-N(9H-purin-6-yl)propionamide dihydrochloride] showed a melting point of 197 °C.
`O=C(CCNCCc1ccccc1)Nc1ncnc2[nH]cnc12` (as salt: hydrochloride) [Example 13, 3-Phenethyl-amino-N(9H-purin-6-yl)propionamide dihydrochloride] gave a melting point of 196 °C.
For `Cn1cnc2ncnc-2c1N` [1-methyl-adenine], the “values at the rAde1R” value (rAde1R [1]) is listed as “micromolar range”.
For `Cn1cnc(N)c2ncnc1-2` [3-methyl-adenine], the “values at the rAde1R” value (rAde1R [1]) is given as “micromolar range”.
In the case of `Cn1cnc2ncnc(N)c21` [7-methyl-adenine], the “values at the rAde1R” value (rAde1R [1]) is listed as “micromolar range”.
For `Cn1cnc2c(N)ncnc21` [9-methyl-adenine], the “values at the rAde1R” value (rAde1R [1]) is listed as “micromolar range”.
With `CN(CCC(=O)Nc1ncnc2[nH]cnc12)C(=O)OC(C)(C)C` [Example 1, 3-(tert-Butyloxycarbonyl-methyl-amino)-N(9H-purin-6-yl)propionamide] the Ki (Human adenine receptor) was 5.47 ± 1.28 µM, the “effect on isoproterenol-induced cAMP accumulation” value (rAde1R [2]; [5]) was “adenine receptor agonists” and the melting point was 205 °C. For the same compound, the Ki (Rat adenine receptor) was 0.949 ± 0.135 µM.
Work on `CCN(CCC(=O)Nc1ncnc2[nH]cnc12)C(=O)OC(C)(C)C` [Example 2, 3-(tert-Butyloxycarbonyl-ethyl-amino)-N(9H-purin-6-yl)propionamide] yielded a Ki (Human adenine receptor) of 7.7 ± 2.4 µM, a melting point of 198 °C and a Ki (Rat adenine receptor) of 2.93 ± 0.4 µM.
In the case of `CCCN(CCC(=O)Nc1ncnc2[nH]cnc12)C(=O)OC(C)(C)C` [Example 3, 3-(tert-Butyloxycarbonyl-propyl-amino)-N(9H-purin-6-yl)propionamide], the Ki (Human adenine receptor) is reported as at least 100 µM, the melting point is reported as 205 °C and the Ki (Rat adenine receptor) is reported as 11.8 ± 0.8 µM.
`CCCCCCN(CCC(=O)Nc1ncnc2[nH]cnc12)C(=O)OC(C)(C)C` [Example 4, 3-(tert-Butyloxycarbonyl-hexyl-amino)-N(9H-purin-6-yl)propionamide] gave a Ki (Human adenine receptor) of 19.7 ± 0.7 µM, a melting point of 185 °C and a Ki (Rat adenine receptor) of 1.56 ± 0.026 µM.
For `CC(C)(C)OC(=O)N(CCC(=O)Nc1ncnc2[nH]cnc12)Cc1ccccc1` [Example 5, 3-(tert-Butyloxycarbonyl-benzyl-amino)-N(9H-purin-6-yl)propionamide], the Ki (Human adenine receptor) was 42.1 ± 1.8 µM, the melting point was 202 °C and the Ki (Rat adenine receptor) was 9.02 ± 0.55 µM.
Compound `CC(C)(C)OC(=O)N(CCC(=O)Nc1ncnc2[nH]cnc12)CCc1ccccc1` [Example 6, 3-(tert-Butyloxycarbonyl-phenethyl-amino)-N(9H-purin-6-yl)propionamide] has a Ki (Human adenine receptor) of at least 100 µM, a melting point of 162 °C and a Ki (Rat adenine receptor) of 9.07 ± 0.8 µM.
With `CC(C)(C)OC(=O)NCCC(=O)Nc1ncnc2[nH]cnc12` [Example 7, 3-tert-Butyloxycarbonylamino-N(9H-purin-6-yl)propionamide] the Ki (Human adenine receptor) was 0.719 ± 0.081 µM, the melting point was 191 °C and the Ki (Rat adenine receptor) was 0.334 ± 0.031 µM.
`CC(C)(C)OC(=O)NCCCC(=O)Nc1ncnc2[nH]cnc12` [Example 8, 4-tert-Butyloxycarbonylamino-N(9H-purin-6-yl)butyramide] showed a Ki (Human adenine receptor) of 2.68 ± 0.37 µM, a melting point of 223 °C and a Ki (Rat adenine receptor) of 3.39 ± 0.56 µM.
For `CNCCC(=O)Nc1ncnc2[nH]cnc12` [Example 9, 3-Methyl-amino-N(9H-purin-6-yl)propionamide dihydrochloride], the Ki (Human adenine receptor) was 1.83 ± 0.09 µM, the “effect on isoproterenol-induced cAMP accumulation” value (rAde1R [2]; [5]) was “no significant effect” and the Kb (rAde1R [2]; calculated from shift of adenine curve by 10 μM compound 9) was 165 nM. The “effect on concentration-response curve of adenine” value (rAde1R [2]; compound 9 at 10 μM, 1321N1 cells expressing rAde1R, FIG. 5) was “shifted the concentration-response curve of adenine to the right proving that it is an antagonist” and the Ki (Rat adenine receptor) was 0.292 ± 0.056 µM.
In the case of `CCNCCC(=O)Nc1ncnc2[nH]cnc12` [Example 10, 3-Ethyl-amino-N(9H-purin-6-yl)propionamide dihydrochloride], the Ki (Human adenine receptor) is reported as 1.34 ± 0.48 µM, the “effect on isoproterenol-induced cAMP accumulation” value (rAde1R [2]; [5]) is reported as “adenine receptor agonists” and the Ki (Rat adenine receptor) is reported as 0.508 ± 0.163 µM.
With `CCCNCCC(=O)Nc1ncnc2[nH]cnc12` [Example 11, 3-Propyl-amino-N(9H-purin-6-yl)propionamide dihydrochloride] the Ki (Human adenine receptor) was 6.85 ± 2.17 µM and the Ki (Rat adenine receptor) was 1.29 ± 0.24 µM.
For `O=C(CCNCc1ccccc1)Nc1ncnc2[nH]cnc12` [Example 12, 3-Benzyl-amino-N(9H-purin-6-yl)propionamide dihydrochloride], the Ki (Human adenine receptor) was 3.27 ± 1.23 µM, the “effect on isoproterenol-induced cAMP accumulation” value (rAde1R [2]; [5]) was “adenine receptor agonists” and the Ki (Rat adenine receptor) was 0.852 ± 0.131 µM.
`O=C(CCNCCc1ccccc1)Nc1ncnc2[nH]cnc12` [Example 13, 3-Phenethyl-amino-N(9H-purin-6-yl)propionamide dihydrochloride] gave a Ki (Human adenine receptor) of 6.93 ± 0.83 µM and a Ki (Rat adenine receptor) of 2.12 ± 0.07 µM.
For `Cl.NCCC(=O)Nc1ncnc2[nH]cnc12` [Example 14, 3-Amino-N(9H-purin-6-yl)propionamide hydrochloride], the Ki (Human adenine receptor) was 0.0447 ± 0.0034 µM, the “effect on isoproterenol-induced cAMP accumulation” value (rAde1R [2]; 1 μM compound, 1321N1 cells expressing rAde1R) was “adenine receptor agonists” and the “inhibition of isoproterenol-stimulated cAMP accumulation by different concentrations” value (rAde1R [2]; 1321N1 cells expressing rAde1R, FIG. 4) was “concentration-dependent inhibition”. For the same compound, the melting point was 204 °C and the Ki (Rat adenine receptor) was 0.0215 ± 0.0056 µM.
In the case of `Cl.NCCCC(=O)Nc1ncnc2[nH]cnc12` [Example 15, 4-Amino-N(9H-purin-6-yl)butyramide hydrochloride], the Ki (Human adenine receptor) is reported as 0.149 ± 0.045 µM, the “effect on isoproterenol-induced cAMP accumulation” value (rAde1R [2]; [5]) is reported as “adenine receptor agonists” and the melting point is reported as 199 °C. The Ki (Rat adenine receptor) was 0.0805 ± 0.003 µM.
In the case of `Nc1ncnc2nc[nH]c12` [adenine], the EC50 (rAde1R [2]; in the absence of compound 9) is reported as 2.24 ± 1.83 nM, the EC50 (rAde1R [2]; in the presence of compound 9 (10 μM)) is reported as 115 ± 42 nM and the “SRE-dependent luciferase expression / erk phosphorylation” value (rAde1R [3]) is reported as “dose-dependent stimulation of erk phosphorylation”. For the same compound, the Ki (rAde1R [1]) was 29.9 nM and the “SRE-dependent luciferase expression / erk phosphorylation” value [4] was “no effect”.
